We go through one compound from article PMC8839660, “Structural Refinement of 2,4-Thiazolidinedione Derivatives as New Anticancer Agents Able to Modulate the BAG3 Protein” (Molecules, 2022).

SMILES strings stand for the structures.

Data set [1] relates to human melanoma cell line (A375). The data set is described as follows: MTT cell viability assay, A375. The note with it: Homo sapiens, A-375, 48 h, 5–50 µM, read-out: A375 Cell Line IC50 ± SD. The class given is cell-based. The procedure:
(§1) Firstly, the antiproliferative activity of lead compound 1, 2 and 5–9 against selected human cell lines was assessed. No effect on human PHA (Phytohaemagglutinin)-stimulated proliferating non-tumor human cell line (PMBC) has been detected for compound 1 tested at different concentrations (10–50 μM) after 72 h of exposure. In more detail, all the synthesized compounds have been tested on human melanoma cancer A375 and HeLa cancer cell lines, which are known to overexpress BAG3 protein, by an MTT cell viability assay, using different concentrations (5–50 μM). The IC50 values have been calculated after 48 h of treatment with test compounds (Table 2).
(§2) Cell lines of human cervical carcinoma (HeLa) and human malignant melanoma (A375) were cultured in Dulbecco’s modified Eagle’s medium containing 10% fetal bovine serum, supplemented with 100 U/mL each of penicillin and streptomycin, and 2 mM/L glutamine and were grown at 37 °C under 5% CO2 air humidified atmosphere.
(§3) Cell viability was evaluated using a colorimetric assay based on MTT ((3-(4,5-dimethylthiazol-2-yl)-2,5-diphenyltetrazolium bromide)) assay. Cells were grown in 96-well tissue culture plates (3,5 × 10^3 cells/well) and after 24 h, were treated with different concentrations of 1, 2 and 5–9 (50, 25, 10, and 5 µM) and incubation was performed for 48 h at 37 °C in an atmosphere containing 5% CO2. At the end of treatment, the plates were centrifuged at 1200 rpm for 5 min, the medium was removed and 100 μL of MTT (1 mg/mL) were added to each well, and cells were incubated at 37 °C for the time necessary to allow the formation of purple formazan precipitate. The solution was then removed from each well, and the formazan crystals within the cells were dissolved with 100 μL of DMSO [31]. The optical density (OD) of each well was measured with a microplate spectrophotometer (Multiskan Spectrum Thermo Electron Corporation reader) (Thermo Fisher Scientific, Rome, Italy) equipped with a 620-nm filter. Cell mortality was calculated as: % mortality = 100 − [100 × (OD treated/OD control)] [32].

The test system of data set [2] is human cervical adenocarcinoma cell line (HeLa). The data set is described as follows: MTT cell viability assay, HeLa. Conditions: Homo sapiens, HeLa, 48 h, 5–50 µM, read-out: HeLa Cell Line IC50 ± SD. The class given is cell-based. The procedure:
as §1, §2, §3

For a further data set, the system named is A375 cells. Kind of data set: Apoptosis and cell cycle analysis by PI staining and flow cytometry, A375. The class given is cell-based, human. The note with it: 5-10-25 μM, 48 h. The procedure:
(§4) The cells were incubated for 48 h with 1 and 6 at concentrations 5-10-25μM.
(§5) The effect of compound 1 and 6 on cell death was analyzed by propidium iodide (PI) (Merck, Darmstadt, Germany) incorporation in permeabilized cells and flow cytometry. Briefly, cells were plated at a density of 2 × 10^4 cells/well in a 24-well plate. After 24 h, 1 and 6 (25-10-5 μM) were added for 48 h. Cells were washed twice with PBS and incubated in 500μL of a solution containing 0.1% Triton X-100, 0.1% sodium citrate, and […] propidium iodide (PI), at 4 °C for 30 min in the dark. The PI-stained cells were subsequently analyzed by flow cytometry by FACSCalibur flow cytometer (Becton Dickinson, Milan, Italy) using CellQuest software (4.0, Becton Dickinson, North Ryde, NSW, Australia). Results are expressed as the percentage of cells in the hypodiploid region. Cellular debris were excluded from the analysis by raising the forward scatter threshold and the DNA content of the nuclei was registered on a logarithmic scale. Cell cycle profiles were evaluated by DNA staining with a PI solution using a flow cytometer. Results from 5000 events per sample were collected, and the relative percentage of the cells in G0/G1, S, G2/M, and sub-G0/G1 phases of the cell cycle was determined using the ModFit LT version 3.3 analysis software (BD Biosciences, North Ryde, NSW, Australia).
Figure 3 Cell cycle analysis: (a) DNA content and (b) hypodiploid nuclei, with propidium iodide staining, were evaluated by flow cytometric assay. A375 cells were treated respectively with 1 or 6 (both 5-10-25 μM) for 48 h. Results are expressed as mean ± S.E.M. of three independent experiments, each performed in duplicate. Data were analyzed by Student’s t-test. * p < 0.05 and ** p < 0.005 vs. non-treated.

In another data set the test system is HeLa cells. The data set is described as follows: Apoptosis and cell cycle analysis by PI staining and flow cytometry, HeLa. The class given is cell-based, human. Conditions: 5-10-25 μM, 48 h. The method, then: as §4, §5
Figure 4 Cell cycle analysis: (a) DNA content and (b) hypodiploid nuclei, with propidium iodide staining, were evaluated by flow cytometric assay. HeLa cells were treated with 6 (5-10-25 μM) for 48 h. Results are expressed as mean ± S.E.M. of three independent experiments each performed in duplicate. Data were analyzed by Student’s t-test. * p < 0.05 and ** p < 0.005 vs. non-treated.

A further data set deals with PC3. On the set-up: method as in PMID 29926854. The note with it: PC3 cells; read-out: antiproliferative activity IC50, PC3; cited from earlier work.
A further data set concerns A549. On the set-up: method as in PMID 29926854. Conditions: A549 cells; read-out: antiproliferative activity IC50, A549; cited from earlier work.
In data set [3] the test system is human PHA (Phytohaemagglutinin)-stimulated proliferating non-tumor human cell line (PMBC). On the set-up: method as in PMID 29926854. Conditions: 10–50 μM, 72 h of exposure; cited from earlier work.
The target in data set [4] is T1, human recombinant BAG4 protein (Homo sapiens, UniProt O95429).
T1 sequence (O95429 1-457): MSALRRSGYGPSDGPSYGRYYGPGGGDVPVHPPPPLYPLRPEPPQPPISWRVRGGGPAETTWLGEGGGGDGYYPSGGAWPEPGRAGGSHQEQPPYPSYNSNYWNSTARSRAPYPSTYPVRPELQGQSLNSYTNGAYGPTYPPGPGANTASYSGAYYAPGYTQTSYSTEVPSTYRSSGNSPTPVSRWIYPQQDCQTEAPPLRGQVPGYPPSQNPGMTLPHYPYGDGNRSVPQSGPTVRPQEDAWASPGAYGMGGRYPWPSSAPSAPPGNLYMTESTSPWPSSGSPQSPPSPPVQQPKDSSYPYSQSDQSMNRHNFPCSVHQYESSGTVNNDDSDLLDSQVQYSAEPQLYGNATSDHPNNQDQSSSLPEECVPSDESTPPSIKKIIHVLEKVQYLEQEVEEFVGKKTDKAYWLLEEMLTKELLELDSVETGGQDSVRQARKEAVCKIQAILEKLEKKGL
Kind of data set: SPR assay on BAG4 (selectivity). The note with it: 25 °C, n.b. = no binding.
Protocol: (§6) A surface plasmon resonance (SPR) assay [18], using a recombinant BAG3 protein, was performed and, to explore the potential selectivity of our potential binders, the affinity for BAG4—the most closely BAG3 related protein—was also evaluated. Moreover, the binding affinity towards the BAG3BD domain was also assessed.
(§7) The SPR analysis were performed on Biacore 3000^TM equipped with a research-grade CM5 sensor chip (GE Healthcare^TM, Milan, Italy). Human recombinant BAG3 (rBAG3) protein was purchased from MyBioSource© (San Diego, CA, USA), BAG3 domain (rBAG3BD) was purchased from ARETA International S.r.l. […] The proteins were coupled to the surface of a CM5 sensor chip using standard amine-coupling protocols, according to the manufacturer’s instructions. Three separates recombinant rBAG proteins surfaces and one unmodified reference surface were prepared for simultaneous analyses. rBAG proteins (BAG3 and BAG4) and rBAG3BD (100 µg mL^−1 in 10 mM CH3COONa, pH 4.5) were immobilized on the sensor chip surface at a flow rate of 5 µL min^−1 to obtain densities of 5–9 kRU. […] For each molecule, a six-point concentration series was conducted in triplicate (0-0.25-1-10-20-100 µM). SPR (Surface Plasmon Resonance) experiments were performed at 25 °C, using a flow rate of 10 µL min^−1, with 60-s monitoring of association and 300-s monitoring of dissociation. Sensorgram elaborations were performed using the BIAevaluation software (GE Healthcare^TM, Milan, Italy). provided by GE Healthcare^TM. Simple interactions were suitably fitted to a single-site bimolecular interaction model (A + B = AB), yielding a single KD.

A further data set concerns the target T2, BAG3 domain (rBAG3BD) (Homo sapiens, UniProt O95817).
T2 sequence (O95817 421-498 limits assumed): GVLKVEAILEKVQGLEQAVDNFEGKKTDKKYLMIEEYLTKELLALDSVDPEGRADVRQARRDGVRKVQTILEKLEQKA
Kind of data set: SPR assay on isolated BAG3 BAG domain.

Data set [5] has as its target Human recombinant BAG3 (rBAG3) protein full length (Homo sapiens, UniProt O95817). Kind of data set: SPR assay on recombinant full-length BAG3.
Protocol: as §6, §7

Chain of Human recombinant BAG3 (rBAG3) protein full length (O95817 whole entry): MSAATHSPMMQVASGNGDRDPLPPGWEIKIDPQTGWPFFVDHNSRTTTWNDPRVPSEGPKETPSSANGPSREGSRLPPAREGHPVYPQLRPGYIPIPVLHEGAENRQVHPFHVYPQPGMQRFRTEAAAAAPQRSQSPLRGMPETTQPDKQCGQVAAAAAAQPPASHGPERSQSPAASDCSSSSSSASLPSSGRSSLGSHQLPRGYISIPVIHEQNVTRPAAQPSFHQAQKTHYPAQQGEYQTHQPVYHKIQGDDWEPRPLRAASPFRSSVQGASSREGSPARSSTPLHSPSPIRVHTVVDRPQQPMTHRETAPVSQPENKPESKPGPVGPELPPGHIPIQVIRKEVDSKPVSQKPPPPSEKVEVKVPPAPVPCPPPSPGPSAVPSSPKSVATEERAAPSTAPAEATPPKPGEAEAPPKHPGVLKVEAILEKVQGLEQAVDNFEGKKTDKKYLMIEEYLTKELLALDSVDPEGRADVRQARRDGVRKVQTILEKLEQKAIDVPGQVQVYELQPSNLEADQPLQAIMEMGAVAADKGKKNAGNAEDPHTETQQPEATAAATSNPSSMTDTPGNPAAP
Protocol for BAG3 domain (rBAG3BD): as §6, §7

For `CCOC(=O)CN1C(=O)S/C(=C\c2ccc(O)c(O)c2)C1=O` [Compound 1, reference compound], the IC50 in data set [1] was 15.1 ± 0.9 µM; in data set [2], greater than 50 µM; with PC3, 48.1 ± 1.5 µM; with A549 it was 32.3 ± 0.9 µM. In addition, the “apoptotic response (hypodiploid nuclei), A375” value in the data set with A375 cells is given as “dose-dependent increase in hypodiploid nuclei”. For the same compound, the “cell cycle distribution (G2 phase), A375” value with A375 cells was “accumulation in the G2 phase”. For the same compound, in the data set with HeLa cells, the “cell cycle distribution (G2 phase), HeLa” value is listed as “no evident effect”. Also, the “effect on PHA-stimulated proliferating non-tumor cells” value in data set [3] is “No effect”. Further, the “rBAG4 KD ± SD” value in data set [4] is “n.b. ^a”. For the same compound, the Kd on BAG3 domain (rBAG3BD) worked out at 6.4 ± 2.2 nM; in [5], 11.1 ± 3.9 nM.
